Tests used:
CLC-1 [1] = molecular target: T1, CLC-1 (Homo sapiens (Human), UniProt P35523); test: IonWorks Barracuda automated patch-clamp electrophysiology, CLC-1; assay type: cell-based; details: for IC50: Table 2; for percent inhibition of CLC-1 at highest concentration tested (in parenthesis): at the concentration listed in the same cell
Protocol: If the IC50 was greater than the highest concentration tested, this concentration is listed along with the percent inhibition at this concentration (in parenthesis).
FIG. 8, panels A and B depict graphically the Selectivity between CLC-1 and CLC-2. […] Data points represent the mean current block at 16 different FA44 concentrations (n=4-8), using the IonWorks™ Barracuda. […] Panel B depicts a summary graph showing the mean inhibition of CLC-1 (left bar) or CLC-2 (right bar) current at 30 μM, illustrating the improvement in both selectivity and potency from the hit compound MCFA to the exemplary compound FA44.
Target sequence in this assay (P35523 whole entry): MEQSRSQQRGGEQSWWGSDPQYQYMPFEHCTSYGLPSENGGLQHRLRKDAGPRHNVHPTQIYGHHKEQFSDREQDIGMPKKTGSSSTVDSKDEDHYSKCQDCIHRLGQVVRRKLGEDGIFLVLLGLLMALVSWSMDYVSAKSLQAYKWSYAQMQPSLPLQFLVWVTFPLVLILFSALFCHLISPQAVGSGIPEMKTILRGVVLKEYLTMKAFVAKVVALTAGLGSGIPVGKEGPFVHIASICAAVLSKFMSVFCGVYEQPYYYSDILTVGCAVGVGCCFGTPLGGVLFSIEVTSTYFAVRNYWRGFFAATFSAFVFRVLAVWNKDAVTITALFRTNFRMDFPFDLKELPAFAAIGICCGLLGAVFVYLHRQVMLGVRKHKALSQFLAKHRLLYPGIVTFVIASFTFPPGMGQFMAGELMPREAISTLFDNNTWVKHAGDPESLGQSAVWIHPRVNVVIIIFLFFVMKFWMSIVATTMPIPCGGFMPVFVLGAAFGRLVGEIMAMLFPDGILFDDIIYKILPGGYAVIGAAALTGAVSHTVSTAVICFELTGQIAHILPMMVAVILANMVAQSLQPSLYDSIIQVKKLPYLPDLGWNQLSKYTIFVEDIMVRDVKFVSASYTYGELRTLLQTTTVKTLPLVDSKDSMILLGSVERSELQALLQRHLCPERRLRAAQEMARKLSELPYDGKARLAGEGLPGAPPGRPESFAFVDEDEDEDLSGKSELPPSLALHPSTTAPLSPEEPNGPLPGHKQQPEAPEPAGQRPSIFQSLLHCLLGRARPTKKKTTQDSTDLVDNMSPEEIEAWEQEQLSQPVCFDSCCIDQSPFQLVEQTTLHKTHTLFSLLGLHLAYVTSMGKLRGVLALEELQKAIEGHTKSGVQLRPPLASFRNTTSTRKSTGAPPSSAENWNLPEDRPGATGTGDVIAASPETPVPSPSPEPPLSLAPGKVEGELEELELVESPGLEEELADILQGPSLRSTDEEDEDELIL

CLC-2 = CLC-2 (Homo sapiens (Human), UniProt P51788); details: preliminary data, Xenopus oocytes
BZP rat brain site = test: PDSP primary binding assay; details: primary binding assay at 10 μM
Protocol: (§1) Two exemplary compounds, FA44 and FA26, were screened against a panel of CNS receptors, transporters, and ion channels to examine specificity for CLC-2 in the brain. A comprehensive primary binding assay screen was performed through the NIH Psychoactive Drug Screening Program (PDSP) at UNC-Chapel Hill. Secondary or functional assays were performed for compounds showing >50% activity in the primary assay.

5-HT7 = 5-HT7 (Homo sapiens (Human), UniProt P34969); test: PDSP primary binding assay; details: primary binding assay at 10 μM
Protocol: as §1

Alpha1A = Alpha1A (Homo sapiens (Human), UniProt P35348); test: PDSP primary binding assay; details: primary binding assay at 10 μM
Alpha1A, sequence (P35348 whole entry): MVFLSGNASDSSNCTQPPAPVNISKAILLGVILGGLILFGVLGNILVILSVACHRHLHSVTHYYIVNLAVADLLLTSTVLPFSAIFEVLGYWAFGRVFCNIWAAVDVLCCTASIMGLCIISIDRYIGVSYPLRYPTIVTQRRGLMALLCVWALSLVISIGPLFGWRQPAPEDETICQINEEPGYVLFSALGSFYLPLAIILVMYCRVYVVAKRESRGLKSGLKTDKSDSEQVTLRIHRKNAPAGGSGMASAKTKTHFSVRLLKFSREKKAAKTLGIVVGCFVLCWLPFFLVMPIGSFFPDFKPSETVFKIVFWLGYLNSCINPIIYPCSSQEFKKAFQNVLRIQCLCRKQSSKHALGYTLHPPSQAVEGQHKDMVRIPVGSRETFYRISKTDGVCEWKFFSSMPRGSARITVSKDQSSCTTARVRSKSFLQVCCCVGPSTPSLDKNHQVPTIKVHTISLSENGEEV
Protocol: as §1

D5 = D5 (Homo sapiens (Human), UniProt P21918); test: PDSP primary binding assay; details: primary binding assay at 10 μM
D5, sequence (P21918 whole entry): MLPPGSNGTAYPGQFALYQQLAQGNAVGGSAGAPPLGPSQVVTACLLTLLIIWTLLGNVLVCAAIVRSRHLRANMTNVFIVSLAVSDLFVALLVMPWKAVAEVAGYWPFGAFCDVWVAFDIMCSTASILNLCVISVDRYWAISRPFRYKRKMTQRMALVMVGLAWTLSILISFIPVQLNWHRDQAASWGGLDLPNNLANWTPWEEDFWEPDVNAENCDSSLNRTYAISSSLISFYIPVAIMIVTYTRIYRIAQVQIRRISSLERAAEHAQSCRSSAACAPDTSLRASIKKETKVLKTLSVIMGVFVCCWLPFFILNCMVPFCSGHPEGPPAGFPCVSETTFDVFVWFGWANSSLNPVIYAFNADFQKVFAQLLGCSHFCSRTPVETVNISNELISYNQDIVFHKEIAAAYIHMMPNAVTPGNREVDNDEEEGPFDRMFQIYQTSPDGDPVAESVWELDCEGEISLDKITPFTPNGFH
Protocol: as §1

KA = test: PDSP primary binding assay; details: primary binding assay at 10 μM
Protocol: as §1

Alpha2B = Alpha2B (Homo sapiens (Human), UniProt P18089); test: PDSP primary binding assay; details: primary binding assay at 10 μM
Protocol: as §1

H2 = H2 (Homo sapiens (Human), UniProt P25021); test: PDSP primary binding assay; details: primary binding assay at 10 μM
H2, sequence (P25021 whole entry): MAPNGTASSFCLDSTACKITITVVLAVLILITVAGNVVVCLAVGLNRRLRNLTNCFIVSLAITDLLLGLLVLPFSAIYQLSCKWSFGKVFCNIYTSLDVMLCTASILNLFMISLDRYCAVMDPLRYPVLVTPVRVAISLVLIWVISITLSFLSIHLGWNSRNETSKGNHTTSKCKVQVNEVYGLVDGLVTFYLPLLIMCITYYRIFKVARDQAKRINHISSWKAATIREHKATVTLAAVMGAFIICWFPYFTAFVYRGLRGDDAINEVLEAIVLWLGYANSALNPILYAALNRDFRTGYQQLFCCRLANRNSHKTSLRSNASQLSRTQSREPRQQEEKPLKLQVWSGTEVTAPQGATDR
Protocol: as §1

5-HT2A = 5-HT2A (Homo sapiens (Human), UniProt P28223); test: PDSP primary binding assay; details: primary binding assay at 10 μM
Protocol: as §1

Beta3 = Beta3 (Homo sapiens (Human), UniProt P13945); test: PDSP primary binding assay; details: primary binding assay at 10 μM
Beta3, sequence (P13945 whole entry): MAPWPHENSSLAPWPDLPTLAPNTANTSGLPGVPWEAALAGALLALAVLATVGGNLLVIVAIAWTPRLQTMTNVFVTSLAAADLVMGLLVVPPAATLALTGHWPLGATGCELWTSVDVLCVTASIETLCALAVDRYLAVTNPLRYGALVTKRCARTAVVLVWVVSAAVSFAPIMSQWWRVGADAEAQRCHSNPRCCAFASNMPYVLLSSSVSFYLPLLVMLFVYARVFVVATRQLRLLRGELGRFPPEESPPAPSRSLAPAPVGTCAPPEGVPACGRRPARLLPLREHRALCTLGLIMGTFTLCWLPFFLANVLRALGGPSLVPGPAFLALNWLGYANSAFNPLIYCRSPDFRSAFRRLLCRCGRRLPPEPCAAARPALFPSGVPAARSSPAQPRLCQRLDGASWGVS
Protocol: as §1

Oxytocin = Oxytocin (Homo sapiens (Human), UniProt P30559); test: PDSP primary binding assay; details: primary binding assay at 10 μM
Oxytocin, sequence (P30559 whole entry): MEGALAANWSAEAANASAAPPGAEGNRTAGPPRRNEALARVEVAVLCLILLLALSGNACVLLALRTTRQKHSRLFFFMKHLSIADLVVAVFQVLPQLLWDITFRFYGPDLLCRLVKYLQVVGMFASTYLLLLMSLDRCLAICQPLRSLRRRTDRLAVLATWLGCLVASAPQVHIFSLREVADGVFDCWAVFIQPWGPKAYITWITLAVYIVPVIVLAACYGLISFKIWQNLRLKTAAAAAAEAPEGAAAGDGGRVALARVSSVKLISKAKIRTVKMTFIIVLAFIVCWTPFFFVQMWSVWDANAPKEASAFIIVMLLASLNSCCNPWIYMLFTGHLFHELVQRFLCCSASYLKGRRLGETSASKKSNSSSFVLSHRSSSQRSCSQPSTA
Protocol: as §1

5-HT2B = 5-HT2B (Homo sapiens (Human), UniProt P41595); test: PDSP primary binding assay; details: primary binding assay at 10 μM
5-HT2B, sequence (P41595 whole entry, species assumed): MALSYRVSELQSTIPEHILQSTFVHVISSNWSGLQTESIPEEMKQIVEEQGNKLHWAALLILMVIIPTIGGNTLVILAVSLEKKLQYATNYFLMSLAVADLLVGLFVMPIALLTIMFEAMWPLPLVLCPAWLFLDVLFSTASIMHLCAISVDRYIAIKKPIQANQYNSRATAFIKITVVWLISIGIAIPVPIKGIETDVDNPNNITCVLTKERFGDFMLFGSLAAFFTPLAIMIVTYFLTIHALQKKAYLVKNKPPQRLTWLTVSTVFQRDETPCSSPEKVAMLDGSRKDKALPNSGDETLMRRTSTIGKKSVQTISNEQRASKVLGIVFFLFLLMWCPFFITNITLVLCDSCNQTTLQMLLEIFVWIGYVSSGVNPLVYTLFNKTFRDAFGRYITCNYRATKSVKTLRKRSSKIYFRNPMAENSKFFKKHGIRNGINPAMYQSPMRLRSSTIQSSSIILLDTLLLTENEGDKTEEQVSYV
Protocol: as §1

PBR = PBR (Homo sapiens (Human), UniProt P30536); test: PDSP primary binding assay; details: primary binding assay at 10 μM
Protocol: as §1

SERT = SERT (Homo sapiens (Human), UniProt P31645); test: PDSP primary binding assay; details: primary binding assay at 10 μM
SERT, sequence (P31645 whole entry, species assumed): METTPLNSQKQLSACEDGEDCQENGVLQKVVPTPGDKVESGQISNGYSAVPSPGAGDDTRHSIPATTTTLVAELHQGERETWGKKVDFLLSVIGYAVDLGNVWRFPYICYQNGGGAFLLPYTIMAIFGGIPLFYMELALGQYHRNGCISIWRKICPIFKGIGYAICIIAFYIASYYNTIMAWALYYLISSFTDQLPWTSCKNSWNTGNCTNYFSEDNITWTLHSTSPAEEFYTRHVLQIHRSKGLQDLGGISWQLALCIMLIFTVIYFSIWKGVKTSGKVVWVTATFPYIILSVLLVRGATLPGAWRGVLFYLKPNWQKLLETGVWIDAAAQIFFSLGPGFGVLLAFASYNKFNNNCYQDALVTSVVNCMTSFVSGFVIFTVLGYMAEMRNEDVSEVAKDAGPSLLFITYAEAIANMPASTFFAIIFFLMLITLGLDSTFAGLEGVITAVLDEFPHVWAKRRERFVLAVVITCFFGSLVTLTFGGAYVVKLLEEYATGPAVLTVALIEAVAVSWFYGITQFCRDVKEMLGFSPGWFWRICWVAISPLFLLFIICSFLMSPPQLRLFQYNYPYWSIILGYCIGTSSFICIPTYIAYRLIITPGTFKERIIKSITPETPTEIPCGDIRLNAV
Protocol: as §1

Alpha1D = Alpha1D (Homo sapiens (Human), UniProt P25100); test: PDSP primary binding assay; details: primary binding assay at 10 μM
Protocol: as §1

Alpha1B = Alpha1B (Homo sapiens (Human), UniProt P35368); test: PDSP primary binding assay; details: primary binding assay at 10 μM
Alpha1B, sequence (P35368 whole entry): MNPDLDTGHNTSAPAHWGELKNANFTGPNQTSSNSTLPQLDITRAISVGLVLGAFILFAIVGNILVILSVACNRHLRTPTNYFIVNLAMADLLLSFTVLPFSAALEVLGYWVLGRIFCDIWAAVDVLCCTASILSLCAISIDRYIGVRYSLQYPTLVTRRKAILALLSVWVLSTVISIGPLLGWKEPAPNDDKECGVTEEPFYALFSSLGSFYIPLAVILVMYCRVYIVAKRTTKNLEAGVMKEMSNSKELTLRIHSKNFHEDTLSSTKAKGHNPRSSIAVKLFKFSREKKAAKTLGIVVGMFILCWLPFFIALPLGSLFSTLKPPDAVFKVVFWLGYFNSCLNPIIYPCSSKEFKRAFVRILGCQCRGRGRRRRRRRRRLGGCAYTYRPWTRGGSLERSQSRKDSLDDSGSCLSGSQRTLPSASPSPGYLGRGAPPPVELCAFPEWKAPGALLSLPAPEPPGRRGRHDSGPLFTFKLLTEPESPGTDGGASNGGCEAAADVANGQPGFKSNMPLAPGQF
Protocol: as §1

Sigma 1 = Sigma 1 (Homo sapiens (Human), UniProt Q99720); test: PDSP primary binding assay; details: primary binding assay at 10 μM
Sigma 1, sequence (Q99720 whole entry): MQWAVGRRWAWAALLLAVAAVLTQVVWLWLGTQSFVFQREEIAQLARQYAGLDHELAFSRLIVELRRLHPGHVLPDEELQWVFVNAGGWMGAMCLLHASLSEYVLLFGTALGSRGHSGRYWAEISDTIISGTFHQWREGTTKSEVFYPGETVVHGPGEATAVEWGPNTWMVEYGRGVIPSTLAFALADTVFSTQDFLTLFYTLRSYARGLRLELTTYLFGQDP
Protocol: as §1

AMPA = test: PDSP primary binding assay; details: primary binding assay at 10 μM
Protocol: as §1

CLC-1 [2] = molecular target: T1, CLC-1; test: two-electrode voltage clamp electrophysiology in Xenopus oocytes, CLC-1; assay type: cell-based; details: preliminary data, read-out: IC50 against CLC-1
Target sequence in this assay (P35523 whole entry, species assumed): as the sequence (P35523 whole entry) above

mGluR2 = mGluR2 (Homo sapiens (Human), UniProt Q14416); test: PDSP functional assay; assay type: biochemical; details: only a functional assay was performed
Protocol: as §1

mGluR6 = mGluR6 (Homo sapiens (Human), UniProt O15303); test: PDSP functional assay; assay type: biochemical; details: only a functional assay was performed
Protocol: as §1

mGluR4 = mGluR4 (Homo sapiens (Human), UniProt Q14833); test: PDSP functional assay; assay type: biochemical; details: only a functional assay was performed
Protocol: as §1

mGluR8 = mGluR8 (Homo sapiens (Human), UniProt O00222); test: PDSP functional assay; assay type: biochemical; details: only a functional assay was performed
Protocol: as §1

V1A = V1A (Homo sapiens (Human), UniProt P37288); test: PDSP primary binding assay; details: primary binding assay at 10 μM
Protocol: as §1

A2A = A2A (Homo sapiens (Human), UniProt P29274); test: PDSP primary binding assay; details: primary binding assay at 10 μM
Protocol: as §1

V1B = V1B (Homo sapiens (Human), UniProt P47901); test: PDSP primary binding assay; details: primary binding assay at 10 μM
Protocol: as §1

[3] = test system: panel of CNS receptors, channels, and transporters; test: PDSP screen against panel of CNS receptors, transporters, and ion channels (overall); assay type: binding
Protocol: as §1

Row | SMILES | IC50 (CLC-1 [1]) | percent inhibition of CLC-1 at highest concentration tested (in parenthesis) (CLC-1 [1]) | % (10 μM) (BZP rat brain site) | % (10 μM) (5-HT7) | % (10 μM) (Alpha1A) | % (10 μM) (D5) | % (10 μM) (KA) | % (10 μM) (Alpha2B) | % (10 μM) (H2) | % (10 μM) (5-HT2A) | % (10 μM) (Beta3) | % (10 μM) (Oxytocin) | % (10 μM) (5-HT2B) | % (10 μM) (PBR) | % (10 μM) (SERT) | % (10 μM) (Alpha1D) | % (10 μM) (Alpha1B) | % (10 μM) (Sigma 1) | % (10 μM) (AMPA) | also measured
1 | O=C(O)c1ccccc1Nc1c(Cl)ccc(OCc2ccccc2)c1Cl [AK3-99B] | > 30 µM | 25% | 40.75% | −29.75% | 24.26% | 27.29% | 13.56% | 15.62% | 25.62% | 19.70% | 32.58% | 8.80% | 14.38% | 2.28% | 4.65% | 7.20% | 4.33% | 3.95% | 21.14% | selectivity among CLC-1, CLC-2, CLC-Ka, CLC-Kb (CLC-2): selective for CLC-2; IC50 (CLC-1 [2]): > 250 µM; Ki (mGluR2): > 10 µM; Ki (mGluR6): > 10 µM; Ki (mGluR4): > 10 µM; Ki (mGluR8): > 10 µM
2 | O=C(O)c1cccnc1Nc1c(Cl)ccc(OCc2ccccc2)c1Cl [AK3-238] | > 100 µM | 22% | 29.32% | 17.51% | 12.29% | 31.58% | 36.60% | −28.62% | 5.35% | 18.91% | 24.76% | −1.41% | 45.16% | 8.22% | 30.25% | −10.12% | 4.90% | 38.52% | 28.20% | % (10 μM) (V1A): 23.96%; % (10 μM) (A2A): −8.70%; % (10 μM) (V1B): 40.53%; off-target effects among panel of CNS receptors, channels, and transporters [3]: no off-target effects

Source: patent publication US11173137B2, “Compositions and methods to modulate chloride ion channel activity” (The Board of Trustees of the Leland Stanford Junior …, priority 2018, dated 2021)
